Measurements as given in patent US7294642B2, “1,3-Diamino-2-hydroxypropane pro-drug derivatives” (Elan Pharmaceuticals, Inc., priority 2002, dated 2007).

Test: Acyl group migration (rearrangement) of pro-drug in DMSO-d6/buffer solution monitored by 19F-NMR
Type: physicochemical
Protocol: A compound of formula (I) OR (X) (5 mg) is dissolved in DMSO-d6 (500 μL) and either pH 4 buffer solution (500 μL, potassium hydrogen phthalate buffer) or pH 7 buffer solution (500 μL, sodium and potassium phosphate buffer) is added. The sample is then heated to 40° C. The O-acyl or N-acyl to N-terminal N-acyl migration is monitored by observing the change in chemical shift for the aromatic fluorines using ^19F-NMR. (Fluorine shifts associated with the desired migration were confirmed by spiking with authentic analogue). The sample is analyzed by ^19F-NMR at approxiamately 0, 1.5, 3, 24, 48, and 144 hours. The amount of O-acyl pro-drug, N-acyl pro-drug, and desired migration product at each time point are assigned by integrating the corresponding NMR signal.
N˜1˜-[(2R,3S)-3-amino-4-(3,5-difluorophenyl)-2-hydroxybutyl]-5-(1,3-oxazol-2-yl)-N˜3˜,N˜3˜-dipropyl-N˜1˜-[3-(trifluoromethyl)benzyl]isophthalamide hydrochloride (PREPARATION 7, 5 mg) is dissolved in DMSO-d6 (500 μL) and pH 4 buffer solution (500 μL, potassium hydrogen phthalate buffer) is added. The sample is then heated to 40° C. The N-acyl to N-terminal N-acyl migration is monitored by observing the change in chemical shift for the aromatic fluorines using ^19F-NMR. (Fluorine shifts for the desired migration product in the presence of buffer was confirmed by spiking with authentic migration product, N^1-((1S,2R)-1-(3,5-difluorobenzyl)-2-hydroxy-3-{[3-(trifluoromethyl)benzyl]amino}propyl)-5-(1,3-oxazol-2-yl)-N^3,N^3-dipropylisophthalamide.) NMR data is collected at 0, 1, 3, 25, 48, 96, and 144 hours. The amount of N-acyl pro-drug and desired migration product present at each time point is assigned by integrating the corresponding NMR signal.
The following examples illustrate the solution acyl group migration of compounds of the formulae (I) and (X) as observed by ^19F NMR spectroscopy. Data were collected as described in Example 1, above.

CCCN(CCC)C(=O)c1cc(C(=O)N(Cc2cccc(CC)c2)C[C@@H](O)[C@@H](N)Cc2cc(F)cc(F)c2)cc(-c2ncco2)c1.Cl [Preparation 19, N^1-[(2R,3S)-3-amino-4-(3,5-difluorophenyl)-2-hydroxybutyl]-N\(u)1\(d)-(3-ethylbenzyl)-5-(1,3-oxazol-2-yl)-N^3,N^3-dispropylisophthalamide hydrochloride]
HEA product (% present) (pH 4, 40° C., time 0 hr): 0%
N-acyl prodrug (% present) (pH 4, 40° C., time 0 hr): 100%
O-acyl pro-drug (% present) (pH 4, 40° C., time 0 hr): 0%
HEA product (% present) (pH 4, 40° C., time 1 hr): 0%
N-acyl prodrug (% present) (pH 4, 40° C., time 1 hr): 100%
O-acyl pro-drug (% present) (pH 4, 40° C., time 1 hr): 0%
HEA product (% present) (pH 4, 40° C., time 3 hr): 0%
N-acyl prodrug (% present) (pH 4, 40° C., time 3 hr): 100%
O-acyl pro-drug (% present) (pH 4, 40° C., time 3 hr): 0%
HEA product (% present) (pH 4, 40° C., time 24 hr): 3%
N-acyl prodrug (% present) (pH 4, 40° C., time 24 hr): 97%
O-acyl pro-drug (% present) (pH 4, 40° C., time 24 hr): 0%
HEA product (% present) (pH 4, 40° C., time 48 hr): 5%
N-acyl prodrug (% present) (pH 4, 40° C., time 48 hr): 95%
O-acyl pro-drug (% present) (pH 4, 40° C., time 48 hr): 0%
HEA product (% present) (pH 4, 40° C., time 96 hr): 8%
N-acyl prodrug (% present) (pH 4, 40° C., time 96 hr): 92%
O-acyl pro-drug (% present) (pH 4, 40° C., time 96 hr): 0%
HEA product (% present) (pH 7, 40° C., time 0 hr): 0%
N-acyl prodrug (% present) (pH 7, 40° C., time 0 hr): 100%
O-acyl pro-drug (% present) (pH 7, 40° C., time 0 hr): 0%
HEA product (% present) (pH 7, 40° C., time 1 hr): 3%
N-acyl prodrug (% present) (pH 7, 40° C., time 1 hr): 97%
O-acyl pro-drug (% present) (pH 7, 40° C., time 1 hr): 0%
HEA product (% present) (pH 7, 40° C., time 3 hr): 9%
N-acyl prodrug (% present) (pH 7, 40° C., time 3 hr): 91%
O-acyl pro-drug (% present) (pH 7, 40° C., time 3 hr): 0%
HEA product (% present) (pH 7, 40° C., time 24 hr): 40%
N-acyl prodrug (% present) (pH 7, 40° C., time 24 hr): 60%
O-acyl pro-drug (% present) (pH 7, 40° C., time 24 hr): 0%
HEA product (% present) (pH 7, 40° C., time 48 hr): 63%
N-acyl prodrug (% present) (pH 7, 40° C., time 48 hr): 37%
O-acyl pro-drug (% present) (pH 7, 40° C., time 48 hr): 0%
HEA product (% present) (pH 7, 40° C., time 96 hr): 81%
N-acyl prodrug (% present) (pH 7, 40° C., time 96 hr): 19%
O-acyl pro-drug (% present) (pH 7, 40° C., time 96 hr): 0%

CCCN(CCC)C(=O)c1cc(C(=O)O[C@H](CNCc2cccc(C(F)(F)F)c2)[C@@H](N)Cc2cc(F)cc(F)c2)cc(-c2ncco2)c1.Cl.Cl [Preparation 18, (1R,2S)-2-amino-3-(3,5-uorophenyl)-1-({[3-(trifluoromethyl)benzyl]amino}methyl)propyl 3-[(dipropylamino)carbonyl]-5-(1,3-oxazol-2-yl)benzoate dihydrochloride]
HEA product (% present) (pH 4, 40° C., time 0 hr): 0%
N-acyl prodrug (% present) (pH 4, 40° C., time 0 hr): 0%
O-acyl pro-drug (% present) (pH 4, 40° C., time 0 hr): 100%
HEA product (% present) (pH 4, 40° C., time 1.5 hr): 54%
N-acyl prodrug (% present) (pH 4, 40° C., time 1.5 hr): 14%
O-acyl pro-drug (% present) (pH 4, 40° C., time 1.5 hr): 32%
HEA product (% present) (pH 4, 40° C., time 3 hr): 74%
N-acyl prodrug (% present) (pH 4, 40° C., time 3 hr): 18%
O-acyl pro-drug (% present) (pH 4, 40° C., time 3 hr): 8%
HEA product (% present) (pH 4, 40° C., time 30 hr): 79%
N-acyl prodrug (% present) (pH 4, 40° C., time 30 hr): 21%
O-acyl pro-drug (% present) (pH 4, 40° C., time 30 hr): 0%
HEA product (% present) (pH 4, 40° C., time 54 hr): 80%
N-acyl prodrug (% present) (pH 4, 40° C., time 54 hr): 20%
O-acyl pro-drug (% present) (pH 4, 40° C., time 54 hr): 0%
HEA product (% present) (pH 4, 40° C., time 126 hr): 86%
N-acyl prodrug (% present) (pH 4, 40° C., time 126 hr): 14%
O-acyl pro-drug (% present) (pH 4, 40° C., time 126 hr): 0%
HEA product (% present) (pH 7, 40° C., time 0 hr): 0%
N-acyl prodrug (% present) (pH 7, 40° C., time 0 hr): 0%
O-acyl pro-drug (% present) (pH 7, 40° C., time 0 hr): 100%
HEA product (% present) (pH 7, 40° C., time 1.5 hr): 34%
N-acyl prodrug (% present) (pH 7, 40° C., time 1.5 hr): 66%
O-acyl pro-drug (% present) (pH 7, 40° C., time 1.5 hr): 0%
HEA product (% present) (pH 7, 40° C., time 7 hr): 41%
N-acyl prodrug (% present) (pH 7, 40° C., time 7 hr): 59%
O-acyl pro-drug (% present) (pH 7, 40° C., time 7 hr): 0%
HEA product (% present) (pH 7, 40° C., time 24 hr): 57%
N-acyl prodrug (% present) (pH 7, 40° C., time 24 hr): 43%
O-acyl pro-drug (% present) (pH 7, 40° C., time 24 hr): 0%
HEA product (% present) (pH 7, 40° C., time 48 hr): 73%
N-acyl prodrug (% present) (pH 7, 40° C., time 48 hr): 27%
O-acyl pro-drug (% present) (pH 7, 40° C., time 48 hr): 0%
HEA product (% present) (pH 7, 40° C., time 144 hr): 84%
N-acyl prodrug (% present) (pH 7, 40° C., time 144 hr): 16%
O-acyl pro-drug (% present) (pH 7, 40° C., time 144 hr): 0%

C#Cc1cccc(C2(NC[C@@H](OC(=O)c3cc(C(=O)N(CCC)CCC)cc(-c4ncco4)c3)[C@@H](N)Cc3cc(F)cc(F)c3)CC2)c1 [Preparation 22, (1R,2S)-2-amino-3-(3,5-difluorophenyl)-1-({[1-(3-ethynylphenyl)cyclopropyl]amino}methyl)propyl 3-[(dipropylamino)carbonyl]-5-(1,3-oxazol-2-yl)benzoate]
HEA product (% present) (pH 4, 40° C., time 0 hr): 0%
N-acyl prodrug (% present) (pH 4, 40° C., time 0 hr): 0%
O-acyl pro-drug (% present) (pH 4, 40° C., time 0 hr): 100%
HEA product (% present) (pH 4, 40° C., time 0.5 hr): 7%
N-acyl prodrug (% present) (pH 4, 40° C., time 0.5 hr): 0%
O-acyl pro-drug (% present) (pH 4, 40° C., time 0.5 hr): 93%
HEA product (% present) (pH 4, 40° C., time 1 hr): 13%
N-acyl prodrug (% present) (pH 4, 40° C., time 1 hr): 0%
O-acyl pro-drug (% present) (pH 4, 40° C., time 1 hr): 87%
HEA product (% present) (pH 4, 40° C., time 3 hr): 27%
N-acyl prodrug (% present) (pH 4, 40° C., time 3 hr): 0%
O-acyl pro-drug (% present) (pH 4, 40° C., time 3 hr): 66%
HEA product (% present) (pH 4, 40° C., time 6 hr): 42%
N-acyl prodrug (% present) (pH 4, 40° C., time 6 hr): 0%
O-acyl pro-drug (% present) (pH 4, 40° C., time 6 hr): 49%
HEA product (% present) (pH 4, 40° C., time 24 hr): 78%
N-acyl prodrug (% present) (pH 4, 40° C., time 24 hr): 0%
O-acyl pro-drug (% present) (pH 4, 40° C., time 24 hr): 9%
HEA product (% present) (pH 4, 40° C., time 48 hr): 86%
N-acyl prodrug (% present) (pH 4, 40° C., time 48 hr): 0%
O-acyl pro-drug (% present) (pH 4, 40° C., time 48 hr): 0%
HEA product (% present) (pH 7, 40° C., time 0 hr): 0%
N-acyl prodrug (% present) (pH 7, 40° C., time 0 hr): 0%
O-acyl pro-drug (% present) (pH 7, 40° C., time 0 hr): 100%
HEA product (% present) (pH 7, 40° C., time 0.5 hr): 10%
N-acyl prodrug (% present) (pH 7, 40° C., time 0.5 hr): 0%
O-acyl pro-drug (% present) (pH 7, 40° C., time 0.5 hr): 10%
HEA product (% present) (pH 7, 40° C., time 1 hr): 100%
N-acyl prodrug (% present) (pH 7, 40° C., time 1 hr): 0%
O-acyl pro-drug (% present) (pH 7, 40° C., time 1 hr): 0%
